The record followed here is ChEMBL document CHEMBL4725218, “Deep Learning Enhancing Kinome-Wide Polypharmacology Profiling: Model Construction and Experiment Validation” (J Med Chem, 2020).

Molecules are shown by their SMILES.

Assay [1] addresses LIM domain kinase 1 (Homo sapiens) (UniProt P53667). The assay is described as follows: Inhibition of human LIMK1 assessed as remaining enzyme activity at 1 uM.
The target of assay [2] is T1, Ephrin type-A receptor 8 (Homo sapiens) (UniProt P29322).
T1 sequence (whole entry): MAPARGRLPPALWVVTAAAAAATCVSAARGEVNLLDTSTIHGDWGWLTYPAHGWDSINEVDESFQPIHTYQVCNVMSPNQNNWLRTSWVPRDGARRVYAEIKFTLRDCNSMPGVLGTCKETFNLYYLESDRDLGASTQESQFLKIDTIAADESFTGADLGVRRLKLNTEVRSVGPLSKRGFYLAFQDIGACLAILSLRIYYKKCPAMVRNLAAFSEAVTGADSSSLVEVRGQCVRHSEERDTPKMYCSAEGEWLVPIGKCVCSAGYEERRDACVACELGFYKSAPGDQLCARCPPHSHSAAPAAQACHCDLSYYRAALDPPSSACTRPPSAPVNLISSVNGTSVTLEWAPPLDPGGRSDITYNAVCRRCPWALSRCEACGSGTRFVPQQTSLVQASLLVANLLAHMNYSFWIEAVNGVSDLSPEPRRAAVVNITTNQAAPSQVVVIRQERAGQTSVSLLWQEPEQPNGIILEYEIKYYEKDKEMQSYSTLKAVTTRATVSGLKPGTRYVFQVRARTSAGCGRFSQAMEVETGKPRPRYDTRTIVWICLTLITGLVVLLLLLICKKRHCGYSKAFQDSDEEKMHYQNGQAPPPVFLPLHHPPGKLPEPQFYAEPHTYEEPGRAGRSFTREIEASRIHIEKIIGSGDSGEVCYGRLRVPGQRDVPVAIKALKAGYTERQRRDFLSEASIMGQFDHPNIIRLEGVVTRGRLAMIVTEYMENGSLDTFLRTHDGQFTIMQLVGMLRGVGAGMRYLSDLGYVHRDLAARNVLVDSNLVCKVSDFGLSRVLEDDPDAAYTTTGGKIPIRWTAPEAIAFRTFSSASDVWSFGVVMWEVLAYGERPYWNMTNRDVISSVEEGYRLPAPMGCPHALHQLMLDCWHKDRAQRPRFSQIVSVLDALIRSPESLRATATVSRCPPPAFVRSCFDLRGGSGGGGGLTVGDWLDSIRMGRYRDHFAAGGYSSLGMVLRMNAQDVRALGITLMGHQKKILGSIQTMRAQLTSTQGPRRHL
As to the kind of experiment: Inhibition of human EphA8 assessed as remaining enzyme activity at 0.01 uM.

The target in assay [3] is Tyrosine-protein kinase ABL1 (Homo sapiens) (UniProt P00519). As to the kind of experiment: Inhibition of human ABL assessed as remaining enzyme activity at 0.1 uM.
In assay [4] the target is T2, Homeodomain-interacting protein kinase 4 (Homo sapiens) (UniProt Q8NE63).
T2 sequence (whole entry): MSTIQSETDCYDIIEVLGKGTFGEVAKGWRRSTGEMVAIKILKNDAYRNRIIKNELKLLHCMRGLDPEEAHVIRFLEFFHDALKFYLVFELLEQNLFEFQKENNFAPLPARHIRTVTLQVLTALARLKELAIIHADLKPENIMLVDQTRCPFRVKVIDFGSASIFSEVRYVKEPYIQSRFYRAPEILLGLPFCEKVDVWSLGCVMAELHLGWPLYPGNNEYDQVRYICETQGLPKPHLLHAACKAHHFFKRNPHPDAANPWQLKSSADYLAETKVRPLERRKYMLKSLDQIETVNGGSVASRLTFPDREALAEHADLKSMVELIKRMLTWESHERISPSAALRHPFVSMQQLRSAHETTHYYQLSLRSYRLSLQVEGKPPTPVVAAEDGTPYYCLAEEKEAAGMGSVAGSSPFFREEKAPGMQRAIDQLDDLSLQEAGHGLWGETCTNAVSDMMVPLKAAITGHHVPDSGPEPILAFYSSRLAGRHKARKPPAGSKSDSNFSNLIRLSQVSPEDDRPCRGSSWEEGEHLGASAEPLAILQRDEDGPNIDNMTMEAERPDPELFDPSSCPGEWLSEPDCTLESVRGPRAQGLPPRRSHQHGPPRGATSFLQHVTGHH
As to the kind of experiment: Inhibition of human HIPK4 assessed as remaining enzyme activity at 0.01 uM.

The target of assay [5] is RAF proto-oncogene serine/threonine-protein kinase (Homo sapiens) (UniProt P04049). The assay is described as follows: Inhibition of human C-Raf assessed as remaining enzyme activity at 1 uM.
Chain of RAF proto-oncogene serine/threonine-protein kinase (Homo sapiens) (P04049 whole entry): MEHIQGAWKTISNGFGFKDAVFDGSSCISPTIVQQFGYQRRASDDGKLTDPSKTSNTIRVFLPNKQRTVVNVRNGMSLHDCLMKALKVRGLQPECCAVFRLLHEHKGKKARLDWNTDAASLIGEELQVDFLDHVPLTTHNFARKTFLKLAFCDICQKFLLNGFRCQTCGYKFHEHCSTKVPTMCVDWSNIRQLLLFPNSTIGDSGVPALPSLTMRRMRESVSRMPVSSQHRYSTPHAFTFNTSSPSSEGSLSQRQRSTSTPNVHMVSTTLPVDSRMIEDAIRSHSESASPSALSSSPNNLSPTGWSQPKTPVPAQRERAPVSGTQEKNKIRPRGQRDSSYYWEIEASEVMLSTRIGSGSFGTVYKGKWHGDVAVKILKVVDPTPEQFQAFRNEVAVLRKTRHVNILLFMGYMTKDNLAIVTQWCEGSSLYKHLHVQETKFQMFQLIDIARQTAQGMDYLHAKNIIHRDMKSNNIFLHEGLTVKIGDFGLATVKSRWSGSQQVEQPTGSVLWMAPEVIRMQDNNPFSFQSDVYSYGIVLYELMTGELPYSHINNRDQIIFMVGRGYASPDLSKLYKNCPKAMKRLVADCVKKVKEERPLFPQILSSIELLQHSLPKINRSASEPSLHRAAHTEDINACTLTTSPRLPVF
In assay [6] the target is Tyrosine-protein kinase ABL2 (Mus musculus) (UniProt Q4JIM5). The assay is described as follows: Inhibition of mouse ARG assessed as remaining enzyme activity at 0.01 uM.
Chain of Tyrosine-protein kinase ABL2 (Mus musculus) (Q4JIM5 whole entry): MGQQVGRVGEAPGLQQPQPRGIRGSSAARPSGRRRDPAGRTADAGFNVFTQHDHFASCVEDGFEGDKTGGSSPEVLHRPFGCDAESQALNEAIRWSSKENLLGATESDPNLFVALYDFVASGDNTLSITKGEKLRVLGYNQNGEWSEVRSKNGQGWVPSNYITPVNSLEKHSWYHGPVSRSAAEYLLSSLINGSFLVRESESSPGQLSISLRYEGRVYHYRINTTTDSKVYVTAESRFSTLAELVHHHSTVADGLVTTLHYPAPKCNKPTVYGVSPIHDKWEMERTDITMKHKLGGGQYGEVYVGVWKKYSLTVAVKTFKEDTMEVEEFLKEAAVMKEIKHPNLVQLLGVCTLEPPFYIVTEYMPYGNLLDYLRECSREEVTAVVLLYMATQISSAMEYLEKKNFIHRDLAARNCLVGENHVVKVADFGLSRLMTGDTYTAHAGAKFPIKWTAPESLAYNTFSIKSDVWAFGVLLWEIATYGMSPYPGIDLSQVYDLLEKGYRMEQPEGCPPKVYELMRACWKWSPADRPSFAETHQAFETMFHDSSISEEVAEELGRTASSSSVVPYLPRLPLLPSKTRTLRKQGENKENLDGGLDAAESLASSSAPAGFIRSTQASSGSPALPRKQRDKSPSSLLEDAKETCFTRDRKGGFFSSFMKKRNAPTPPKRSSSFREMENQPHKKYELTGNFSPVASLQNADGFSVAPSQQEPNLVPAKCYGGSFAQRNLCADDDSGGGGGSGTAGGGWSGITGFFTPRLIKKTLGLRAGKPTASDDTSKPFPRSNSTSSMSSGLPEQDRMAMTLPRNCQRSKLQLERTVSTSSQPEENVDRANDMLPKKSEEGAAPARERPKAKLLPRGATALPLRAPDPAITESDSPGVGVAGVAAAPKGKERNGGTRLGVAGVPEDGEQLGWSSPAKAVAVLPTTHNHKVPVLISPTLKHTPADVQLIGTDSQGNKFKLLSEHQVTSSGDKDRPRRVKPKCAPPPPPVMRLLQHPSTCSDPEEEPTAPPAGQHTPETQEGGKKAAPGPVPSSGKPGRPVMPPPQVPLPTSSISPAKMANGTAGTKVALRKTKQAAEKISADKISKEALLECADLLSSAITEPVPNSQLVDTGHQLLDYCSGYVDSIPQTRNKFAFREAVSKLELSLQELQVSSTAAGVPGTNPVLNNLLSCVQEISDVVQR
Assay [7] addresses Tyrosine-protein kinase FRK (Homo sapiens) (UniProt P42685). The assay is described as follows: Inhibition of human PTK5 assessed as remaining enzyme activity at 1 uM.
The target in assay [8] is Mitogen-activated protein kinase kinase kinase kinase 5 (Homo sapiens) (UniProt Q9Y4K4). The assay is described as follows: Inhibition of human MAP4K5 assessed as remaining enzyme activity at 0.1 uM.
In assay [9] the target is Tyrosine-protein kinase Lyn (Homo sapiens) (UniProt P07948). As to the kind of experiment: Inhibition of human LYN assessed as remaining enzyme activity at 0.01 uM.
Chain of Tyrosine-protein kinase Lyn (Homo sapiens) (P07948 2-512 limits assumed): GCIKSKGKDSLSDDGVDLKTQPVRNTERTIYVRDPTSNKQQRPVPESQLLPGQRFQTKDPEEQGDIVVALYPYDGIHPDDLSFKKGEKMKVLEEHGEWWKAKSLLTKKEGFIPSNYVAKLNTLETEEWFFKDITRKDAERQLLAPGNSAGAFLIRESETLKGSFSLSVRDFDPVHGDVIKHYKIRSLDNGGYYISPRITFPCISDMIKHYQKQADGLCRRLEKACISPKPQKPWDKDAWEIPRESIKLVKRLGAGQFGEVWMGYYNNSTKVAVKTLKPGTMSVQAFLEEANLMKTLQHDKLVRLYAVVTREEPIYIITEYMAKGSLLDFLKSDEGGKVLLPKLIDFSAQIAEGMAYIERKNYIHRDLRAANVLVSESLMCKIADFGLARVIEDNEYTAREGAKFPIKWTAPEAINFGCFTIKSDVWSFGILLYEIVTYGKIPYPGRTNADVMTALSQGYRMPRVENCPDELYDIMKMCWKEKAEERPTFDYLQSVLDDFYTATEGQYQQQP
Assay [10] addresses Mitogen-activated protein kinase kinase kinase 20 (Homo sapiens) (UniProt Q9NYL2). The assay is described as follows: Inhibition of human ZAK assessed as remaining enzyme activity at 1 uM.
The target in assay [11] is Vascular endothelial growth factor receptor 1 (Homo sapiens) (UniProt P17948). The assay is described as follows: Inhibition of human VEGFR1 assessed as remaining enzyme activity at 0.01 uM.
The species named for a further assay is Homo sapiens. The assay is described as follows: Inhibition of human p70S6K assessed as remaining enzyme activity at 1 uM.
Assay [12] concerns the target RAF proto-oncogene serine/threonine-protein kinase (Homo sapiens) (UniProt P04049). As to the kind of experiment: Inhibition of human RAF1 assessed as remaining enzyme activity at 0.1 uM.
In assay [13] the target is Ephrin type-A receptor 2 (Homo sapiens) (UniProt P29317). As to the kind of experiment: Inhibition of human EphA2 assessed as remaining enzyme activity at 1 uM.
Chain of Ephrin type-A receptor 2 (Homo sapiens) (P29317 whole entry): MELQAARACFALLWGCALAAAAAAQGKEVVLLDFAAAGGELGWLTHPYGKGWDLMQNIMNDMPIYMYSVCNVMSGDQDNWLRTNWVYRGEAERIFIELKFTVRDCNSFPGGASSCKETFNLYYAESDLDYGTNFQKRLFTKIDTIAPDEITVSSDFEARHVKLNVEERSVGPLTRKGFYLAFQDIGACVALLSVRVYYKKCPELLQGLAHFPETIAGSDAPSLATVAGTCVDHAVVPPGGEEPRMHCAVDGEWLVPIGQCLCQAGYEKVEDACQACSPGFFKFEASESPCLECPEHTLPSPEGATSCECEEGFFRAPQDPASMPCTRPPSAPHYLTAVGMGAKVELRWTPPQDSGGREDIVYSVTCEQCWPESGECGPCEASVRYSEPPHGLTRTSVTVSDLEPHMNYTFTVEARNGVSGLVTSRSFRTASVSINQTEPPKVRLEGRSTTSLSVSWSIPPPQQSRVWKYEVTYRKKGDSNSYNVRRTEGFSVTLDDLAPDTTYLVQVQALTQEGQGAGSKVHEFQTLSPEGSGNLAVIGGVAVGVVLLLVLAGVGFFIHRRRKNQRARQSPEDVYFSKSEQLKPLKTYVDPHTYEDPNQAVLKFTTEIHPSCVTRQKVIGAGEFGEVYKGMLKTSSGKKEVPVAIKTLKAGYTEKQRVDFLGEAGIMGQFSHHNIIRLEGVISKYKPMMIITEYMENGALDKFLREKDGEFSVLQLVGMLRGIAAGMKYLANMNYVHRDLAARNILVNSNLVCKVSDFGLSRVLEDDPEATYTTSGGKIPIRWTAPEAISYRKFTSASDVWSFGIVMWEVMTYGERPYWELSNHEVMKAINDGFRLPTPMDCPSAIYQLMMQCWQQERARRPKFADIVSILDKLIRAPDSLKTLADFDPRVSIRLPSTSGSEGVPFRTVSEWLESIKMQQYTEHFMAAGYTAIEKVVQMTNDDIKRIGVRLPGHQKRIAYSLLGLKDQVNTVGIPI
Assay [14] has as its target Tyrosine-protein kinase ABL2 (Mus musculus) (UniProt Q4JIM5). As to the kind of experiment: Inhibition of mouse ARG assessed as remaining enzyme activity at 1 uM.
Assay [15] concerns the target Ephrin type-A receptor 2 (Homo sapiens) (UniProt P29317). As to the kind of experiment: Inhibition of human EphA2 assessed as remaining enzyme activity at 0.1 uM.
Assay [16] addresses BDNF/NT-3 growth factors receptor (Homo sapiens) (UniProt Q16620). The assay is described as follows: Inhibition of human TRKB assessed as remaining enzyme activity at 1 uM.

Chain of Mitogen-activated protein kinase kinase kinase 20 (Homo sapiens) (Q9NYL2 2-800 limits assumed): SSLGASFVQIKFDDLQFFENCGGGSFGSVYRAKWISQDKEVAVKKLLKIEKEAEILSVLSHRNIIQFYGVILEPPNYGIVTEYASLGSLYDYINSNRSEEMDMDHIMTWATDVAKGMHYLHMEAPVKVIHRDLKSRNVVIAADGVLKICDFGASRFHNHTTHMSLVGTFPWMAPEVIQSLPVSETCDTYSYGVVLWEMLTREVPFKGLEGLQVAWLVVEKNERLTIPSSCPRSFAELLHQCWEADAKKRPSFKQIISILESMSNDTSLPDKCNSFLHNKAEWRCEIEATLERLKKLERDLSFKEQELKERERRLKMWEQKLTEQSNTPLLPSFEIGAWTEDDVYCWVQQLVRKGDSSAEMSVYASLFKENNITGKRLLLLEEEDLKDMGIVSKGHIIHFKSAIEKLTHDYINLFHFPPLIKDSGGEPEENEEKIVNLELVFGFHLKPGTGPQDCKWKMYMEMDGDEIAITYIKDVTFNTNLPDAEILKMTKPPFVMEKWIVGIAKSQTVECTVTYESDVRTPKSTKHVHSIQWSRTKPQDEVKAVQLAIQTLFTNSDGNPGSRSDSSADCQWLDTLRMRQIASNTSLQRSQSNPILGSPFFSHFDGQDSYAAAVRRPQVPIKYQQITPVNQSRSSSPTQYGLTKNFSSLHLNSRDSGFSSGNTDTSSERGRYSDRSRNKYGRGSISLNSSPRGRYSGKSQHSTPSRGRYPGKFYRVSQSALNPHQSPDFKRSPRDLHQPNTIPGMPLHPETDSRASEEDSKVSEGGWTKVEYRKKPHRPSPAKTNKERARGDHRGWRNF
Chain of Tyrosine-protein kinase FRK (Homo sapiens) (P42685 whole entry): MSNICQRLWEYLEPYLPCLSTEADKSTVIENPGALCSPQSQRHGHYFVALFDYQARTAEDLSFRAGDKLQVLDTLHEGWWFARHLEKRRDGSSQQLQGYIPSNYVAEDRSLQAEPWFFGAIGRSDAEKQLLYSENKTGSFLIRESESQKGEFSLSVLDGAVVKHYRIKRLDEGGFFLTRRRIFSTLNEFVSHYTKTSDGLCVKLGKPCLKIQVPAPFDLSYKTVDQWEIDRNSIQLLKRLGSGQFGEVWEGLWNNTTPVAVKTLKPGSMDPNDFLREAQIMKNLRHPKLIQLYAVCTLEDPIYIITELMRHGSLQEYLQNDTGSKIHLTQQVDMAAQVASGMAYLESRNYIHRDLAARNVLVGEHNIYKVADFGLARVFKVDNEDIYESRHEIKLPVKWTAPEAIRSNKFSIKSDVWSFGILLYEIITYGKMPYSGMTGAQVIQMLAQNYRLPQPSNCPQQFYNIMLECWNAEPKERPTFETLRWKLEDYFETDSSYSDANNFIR

`CNC(=O)c1cc(Oc2ccc(NC(=O)Nc3ccc(Cl)c(C(F)(F)F)c3)c(F)c2)ccn1`: the Activity is 46% in assay [1]; 85% in assay [2]; 49% in [3]; 31% in assay [4]; 8% in [5]; 97% in [6]. Besides, the Activity in assay [7] is 3%; in [8], 37%; in assay [9], 32%; in assay [10], -1%; in assay [11], 43%; in the assay filed under Homo sapiens it was 36%. In addition, the Activity in assay [12] was determined as 57%; in assay [13], 5%; in [14], 9%; in [15], 58%; in assay [16] it was 1%.
